Data published in ChEMBL document CHEMBL5512693, “Improved Rigidin-Inspired Antiproliferative Agents with Modifications on the 7-Deazahypoxanthine C7/C8 Ring Systems” (J Med Chem, 2024).
Converted amounts (≈) assume the structure as drawn. The source made the active and inactive calls. The rule behind the calls is not given here.

Columns and labels:
HeLa [1] = test: Antiproliferative activity against human HeLa cells assessed as reduction in cell viability incubated for 48 hrs by MTT assay; type: functional
Tubulin (Homo sapiens) [2] = target: T1, Tubulin (Homo sapiens) (UniProt P68371+Q9H4B7+P0DPH7+P68366+Q13509+Q71U36+P04350+Q3ZCM7+P07437+P68363+Q9BQE3+Q6PEY2+Q13885+Q9BVA1+Q9BUF5); test: Inhibition of microtubule (unknown origin) polymerization at 25 uM by fluorescence- based assay relative to control; type: protein-complex assay
Tubulin (Homo sapiens) [3] = target: T1, Tubulin (Homo sapiens); test: Induction of microtubule organization changes in human Hela cells assessed as decrease in spindle length at GI50 concentration incubated for 4 hrs by inverted microscopy; type: cell-based
[4] = Solubility of the compound by laser nephelometry; type: physicochemical
HeLa [5] = test: Antimitotic effect in human HeLa cells expressing EGFP-tubulin assessed as chromosome congression defect by measuring progressing through mitosis to prolonged pro-metaphase arrest at 7.5 nM incubated for 4 hrs by immunolabelling based live-cell imaging/inverted microscopy; type: functional
HeLa [6] = test: Antimitotic effect in human HeLa cells expressing EGFP-tubulin assessed as chromosome congression defect by measuring correcting the syntelic attachment at 7.5 nM incubated for 4 hrs by live-cell imaging/inverted microscopy; type: functional, cell-based
[7] = Therapeutic index, ratio of GI50 for human PNT1A cells to GI50 for human HeLa cells; type: toxicity; conditions: PNT1A cells and HeLa cells, read-out: TI
HeLa [8] = test: Antimitotic effect in human HeLa cells expressing EGFP-tubulin assessed as chromosome congression defect by measuring mitotic exit/cell death at 7.5 nM incubated for 4 hrs by immunolabelling based live-cell imaging/inverted microscopy; type: functional
HeLa [9] = test: Induction of apoptosis in human HeLa cells assessed as total number of cells died at 20 uM measured upto 30 hrs by Annexin V labelling method relative to control; type: functional

Row | Compound | inhibition (Tubulin (Homo sapiens) [2]) | Activity (Tubulin (Homo sapiens) [3]) | selectivity ratio [7] | solubility kinetic [4] | other results
1 | C#CCCCc1nc(=O)c2c(-c3cccc(Br)n3)c(C(=O)c3ccc(OCCOCC)cc3)[nH]c2[nH]1 | – | – | – | – | GI50 (HeLa [1]): 22.4 nM
2 | C#CCCCc1nc(=O)c2c(-c3cc(F)cc(F)c3)c(C(=O)c3ccc(OCCOCC)cc3)[nH]c2[nH]1 | – | Active | – | 14 µM (≈ 7.08 µg/mL) | Activity (HeLa [9]): 85%
3 | C#CCCCc1nc(=O)c2c(-c3ccccc3)c(C(=O)c3ccc(N4CCOCC4)cc3)[nH]c2[nH]1 | – | – | 2 | – | –
4 | C#CCCCc1nc(=O)c2c(-c3ccccc3)c(C(=O)c3ccc(OCCN4CCCC4)cc3)[nH]c2[nH]1 | – | – | – | – | solubility [4]: Soluble
5 | C#CCCCc1nc(=O)c2c(-c3cccc(F)c3)c(C(=O)c3ccc(OCCOCC)cc3)[nH]c2[nH]1 | 100% | Active | 2 | 14 µM (≈ 6.83 µg/mL) | Activity (HeLa [9]): 87%; GI50 (HeLa [1]): 16 nM

More lines, main results first:

Row | inhibition (Tubulin (Homo sapiens) [2]) | Compound | Activity (Tubulin (Homo sapiens) [3]) | selectivity ratio [7] | solubility kinetic [4] | other results
6 | 100% | C#CCCCc1nc(=O)c2c(-c3ccccc3)c(C(=O)c3ccc(OCCN4CCOCC4)cc3)[nH]c2[nH]1 | Active | – | – | solubility [4]: Soluble
7 | 100% | C#CCCCc1nc(=O)c2c(-c3ccccc3)c(C(=O)c3ccc(OCCOCC)cc3)[nH]c2[nH]1 | Active | 2 | 14 µM (≈ 6.57 µg/mL) | Activity (HeLa [5]): Active; Activity (HeLa [6]): Active; Activity (HeLa [8]): Active
8 | 100% | C#CCCCc1nc(=O)c2c(-c3ccccc3)c(C(=O)c3ccccc3)[nH]c2[nH]1 | – | – | – | –
